Data reported in PubChem BioAssay (NCI).
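Following 48 hours of exposure in 96-well plates, responses at five concentrations were used to interpolate endpoints linearly. GI50: concentration for 50% inhibition of growth. At the TGI there is no net growth.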

Assays:
Assay in all cases: NCI anticancer screen, dose series, 48 h
MCF7 breast = test system: MCF7 breast
SW-620 colon = test system: SW-620 colon
SR leukemia = test system: SR leukemia
OVCAR-5 ovarian = test system: OVCAR-5 ovarian
KM12 colon = test system: KM12 colon
EKVX NSCLC = test system: EKVX NSCLC
PC-3 prostate = test system: PC-3 prostate
MOLT-4 leukemia = test system: MOLT-4 leukemia
RPMI-8226 leukemia = test system: RPMI-8226 leukemia
K-562 leukemia = test system: K-562 leukemia
SF-295 CNS = test system: SF-295 CNS
MALME-3M melanoma = test system: MALME-3M melanoma
OVCAR-3 ovarian = test system: OVCAR-3 ovarian
SK-MEL-5 melanoma = test system: SK-MEL-5 melanoma
NCI-H226 lung = test system: NCI-H226 lung
UO-31 renal = test system: UO-31 renal
HOP-62 NSCLC = test system: HOP-62 NSCLC
HS 578T breast = test system: HS 578T breast
SNB-19 CNS = test system: SNB-19 CNS
DU-145 prostate = test system: DU-145 prostate
OVCAR-8 ovarian = test system: OVCAR-8 ovarian
HCT-116 colon = test system: HCT-116 colon
NCI-H522 lung = test system: NCI-H522 lung
CCRF-CEM leukemia = test system: CCRF-CEM leukemia
T-47D breast = test system: T-47D breast
ACHN renal = test system: ACHN renal
SF-268 CNS = test system: SF-268 CNS
SK-OV-3 ovarian = test system: SK-OV-3 ovarian
SF-539 CNS = test system: SF-539 CNS
BT-549 breast = test system: BT-549 breast
UACC-257 melanoma = test system: UACC-257 melanoma
HL-60(TB) leukemia = test system: HL-60(TB) leukemia
NCI/ADR-RES ovarian = test system: NCI/ADR-RES ovarian
TK-10 renal = test system: TK-10 renal
CAKI-1 renal = test system: CAKI-1 renal
HCT-15 colon = test system: HCT-15 colon
NCI-H460 lung = test system: NCI-H460 lung
IGROV1 ovarian = test system: IGROV1 ovarian
MDA-MB-231 breast = test system: MDA-MB-231 breast
U251 CNS = test system: U251 CNS
COLO 205 colon = test system: COLO 205 colon
786-0 renal = test system: 786-0 renal
LOX IMVI melanoma = test system: LOX IMVI melanoma
SK-MEL-2 melanoma = test system: SK-MEL-2 melanoma
UACC-62 melanoma = test system: UACC-62 melanoma
A498 renal = test system: A498 renal
A549 NSCLC = test system: A549 NSCLC
M14 melanoma = test system: M14 melanoma
MDA-MB-435 = test system: MDA-MB-435
SN12C renal = test system: SN12C renal
NCI-H23 lung = test system: NCI-H23 lung

## O=S(=O)(CC#CCCCOCC#Cc1ccccc1C#CCS(=O)(=O)c1ccccc1)c1ccccc1
MCF7 breast
  GI50: 16.3 µM
  TGI: 35.3 µM
SW-620 colon
  GI50: 28.6 µM
  TGI: > 100 µM
SR leukemia
  GI50: 4.16 µM
  TGI: 21.8 µM
OVCAR-5 ovarian
  GI50: 24.8 µM
  TGI: 55.3 µM
KM12 colon
  GI50: 33.2 µM
  TGI: > 100 µM
EKVX NSCLC
  GI50: > 100 µM
  TGI: > 100 µM
PC-3 prostate
  GI50: 20.4 µM
  TGI: 65.3 µM
MOLT-4 leukemia
  GI50: 2.61 µM
  TGI: 5.9 µM
RPMI-8226 leukemia
  GI50: 11.6 µM
  TGI: 31.4 µM
K-562 leukemia
  GI50: 15.9 µM
  TGI: 39.6 µM
SF-295 CNS
  GI50: 29.8 µM
  TGI: 91.3 µM
MALME-3M melanoma
  GI50: 20.6 µM
  TGI: 59.7 µM
OVCAR-3 ovarian
  GI50: 11.6 µM
  TGI: 30 µM
SK-MEL-5 melanoma
  GI50: 15.3 µM
  TGI: 31.8 µM
NCI-H226 lung
  GI50: 16.6 µM
  TGI: 45.7 µM
UO-31 renal
  GI50: 17.7 µM
  TGI: 35.4 µM
HOP-62 NSCLC
  GI50: 31.7 µM
  TGI: > 100 µM
HS 578T breast
  GI50: 35.2 µM
  TGI: > 100 µM
SNB-19 CNS
  GI50: > 100 µM
  TGI: > 100 µM
DU-145 prostate
  GI50: 44.5 µM
  TGI: > 100 µM
OVCAR-8 ovarian
  GI50: 16.1 µM
  TGI: 42 µM
HCT-116 colon
  GI50: 16.2 µM
  TGI: 29.7 µM
NCI-H522 lung
  GI50: 14.6 µM
  TGI: 33 µM
CCRF-CEM leukemia
  GI50: 3.23 µM
  TGI: 10.2 µM
T-47D breast
  GI50: > 100 µM
  TGI: > 100 µM
ACHN renal
  GI50: 24.3 µM
  TGI: 55 µM
SF-268 CNS
  GI50: 19.6 µM
  TGI: 50.1 µM
SK-OV-3 ovarian
  GI50: > 100 µM
  TGI: > 100 µM
SF-539 CNS
  GI50: 22.9 µM
  TGI: 45.3 µM
BT-549 breast
  GI50: 19 µM
  TGI: 34.8 µM
UACC-257 melanoma
  GI50: 14.9 µM
  TGI: 38.9 µM
HL-60(TB) leukemia
  GI50: 21.8 µM
  TGI: 50.1 µM
NCI/ADR-RES ovarian
  GI50: 20.6 µM
  TGI: 44.1 µM
TK-10 renal
  GI50: > 100 µM
  TGI: > 100 µM
CAKI-1 renal
  GI50: 13.3 µM
  TGI: 30.8 µM
HCT-15 colon
  GI50: 22.6 µM
  TGI: 45.6 µM
NCI-H460 lung
  GI50: 31.2 µM
  TGI: > 100 µM
IGROV1 ovarian
  GI50: 11.8 µM
  TGI: 25.7 µM
MDA-MB-231 breast
  GI50: 19.8 µM
  TGI: 42.8 µM
U251 CNS
  GI50: 20.5 µM
  TGI: 41 µM
COLO 205 colon
  GI50: 72.3 µM
  TGI: > 100 µM
786-0 renal
  GI50: 18.9 µM
  TGI: 35.3 µM
LOX IMVI melanoma
  GI50: 8.1 µM
  TGI: 24.8 µM
SK-MEL-2 melanoma
  GI50: 23 µM
  TGI: 47.9 µM
UACC-62 melanoma
  GI50: 17.7 µM
  TGI: 39.7 µM
A498 renal
  GI50: > 100 µM
  TGI: > 100 µM
A549 NSCLC
  GI50: 33.6 µM
  TGI: > 100 µM
M14 melanoma
  GI50: 25.2 µM
  TGI: 56.5 µM
MDA-MB-435
  GI50: 26 µM
  TGI: 62.4 µM
SN12C renal
  GI50: 18.3 µM
  TGI: 40.7 µM
NCI-H23 lung
  GI50: 15.5 µM
  TGI: 44.8 µM
